Consider one molecule from patent US11767303B2, “Compounds and methods for inhibiting viral replication and methods of treating and preventing flaviviral infections” (priority 2020, dated 2023).

Like-named read-outs stand apart in the source and are kept apart here.

The subject of assay [1] is ZIKV PRVABC59. Briefly: ZIKV viremia mouse model (A129 mice). Format: in vivo. The settings on record: 20 mg/kg/day oral gavage, day 3 post-infection, vs vehicle. The procedure:
In vivo protection efficacy. All animal studies involving infectious ZIKV were conducted at an Animal Biosafety Level 2 (ABSL-2) facility at the Wadsworth Center with Institutional Biosafety and Animal Welfare Committee approval.
A group of four-week-old A129 mice were infected by subcutaneous injection with 1.7×10^5 PFU of the PRVABC59 strain. […] Mice were observed daily for signs of illness and mortality. Viremia on day 3 post-infection (pi) was determined by plaque forming assay, and statistical analysis was performed using the unpaired, two-tailed t-test (Prism).
Finally, the in vivo antiviral efficacy was evaluated using a viremia mouse model, as described previously. Zhang et al., “Characterization of the Contemporary Zika Virus in Immunocompetent Mice,” Hum. Vaccines Immunother. 12:3107-3109 (2016) and Larocca et al., “Vaccine Protection Against Zika Virus From Brazil,” Nature 536:474-478 (2016), both of which are hereby incorporated by reference in their entirety.

The subject of assay [2] is ZIKV NS3. Put plainly: Western blot of ZIKV NS3 and polyprotein precursor in infected A549 cells. Format: cell-based, Zika virus. The settings on record: MOI 0.1, 48 hrs. The procedure:
FIGS. 6A-6C show mechanism of action studies. […] Viral titers were quantified using plaque forming assay 48 hrs post-infection. DMSO was added to control. N=3. ***, p<0.001. […] N=3. […] Right, Band intensities of PP and NS3 normalized to the GAPDH control (N=3). […] Li et al., “Existing Drugs as Broad-Spectrum and Potent Inhibitors for Zika Virus by Targeting NS2B-NS3 Interaction,” Cell Res. 27:1046-1064 (2017), which is hereby incorporated by reference in its entirety. At 48 hrs post-infection, cells were washed, harvested, and protected by protease inhibitor cocktail prior to lysis by SDS-PAGE loading buffer. Upon incubation at 95° C. for 10 min, sample was subjected to Western blot analysis with anti-ZIKV NS3 (GTX133309, GeneTex, Inc.) and anti-GAPDH (CB1001, EMD Millipore) as primary antibodies. Error bars in all panels represent the standard deviations at each condition.
Western Blot. Western blot was performed using anti-ZIKV NS3 (GTX133309, GeneTex, Inc.) and anti-GAPDH (CB1001, EMD Millipore) antibodies, as described previously. Li et al., “Existing Drugs as Broad-Spectrum and Potent Inhibitors for Zika Virus by Targeting NS2B-NS3 Interaction,” Cell Res. 27:1046-1064 (2017) and Brecher et al., “A Conformational Switch High-Throughput Screening Assay and Allosteric Inhibition of the Flavivirus NS2B-NS3 Protease,” PLoS Pathog. […]
For orientation: A western blot detects proteins with antibodies after separation by electrophoresis.

Assay [3] deals with DENV2. Put plainly: Viral titer (plaque) reduction assay, DENV2 in A549 cells. In kind it is cell-based, Dengue virus serotype 2. The settings on record: Dengue virus, DENV2, A549 cells. As for the experimental part:
Viral Titer Reduction Assay. A viral titer reduction assay was used to determine the compounds' effect on DENV2 and ZIKV strains, as described previously. […] Human A549 lung carcinoma cells and human primary neural progenitor cells were used, as described previously. […] 13:e1006411 (2017), which are hereby incorporated by reference in their entirety. All experiments were performed in triplicates.
A viral plaque reduction assay was performed next to evaluate the antiviral efficacy of these derivatives. Human lung carcinoma A549 cells were infected with DENV2 in the presence of a concentration series of derivatives or a dimethyl sulfoxide (DMSO) control, and viral titers were measured at 48 hrs post-infection, as described previously.

One may read the EC50 as the concentration that produces a half-maximal response. For the molecule `O=C(Nc1ccc([N+](=O)[O-])cc1Cl)c1cccc([N+](=O)[O-])c1O` [JMX0207, N-(2-Chloro-4-nitrophenyl)-2-hydroxy-3-nitrobenzamide], the ZIKV-induced viremia entry in assay [1] is “significant reduction in ZIKV-induced viremia”. In assay [2], the “unprocessed viral polyprotein precursor (PP)” value is listed as “dose-dependent increase of a protein with high molecular weight” and the “viral NS3 protein production” value is given as “dose-dependent reduction of viral NS3 protein production”. Further, the EC50 in assay [3] (48 hrs post-infection, read-out: EC50-DN2 (A549)) was found to be 310 nM. The EC50 in assay [3] (Table 4, preliminary SAR, read-out: EC50-DN2) worked out at 360 nM.
